Entries after “also recorded” stand apart in the source; their conditions may differ.
How the values were obtained:
[1] = target: T1, AEP in human B lymphoblastoid Pala cells (Homo sapiens, UniProt Q99538); assay: IC50 assays in intact Pala cells; assay type: cell-based; conditions: 2 hr incubation, residual AEP activity in lysate
T1 construct: human B lymphoblastoid pala cells, which are rich in endogenous AEP; endogenous in cells; host or cells: Pala cells (human B lymphoblastoid)
Experimental: The cells were incubated with inhibitors for 2 hrs then cells washed, harvested and lysed and the residual enzymatic activity was determined. Lysate was normalized by Bradford assay and the experiment was performed in triplicate and the mean results and SEM were plotted.
In an attempt to assess the activity of the compounds in intact cells, the compounds were incubated with human B lymphoblastoid pala cells, which are rich in endogenous AEP and have been used for inhibiting AEP in cellular assay.
Human B Lymphoblastoid Pala cells, which express high concentrations of AEP, were cultured in RPMI-1640, supplemented with 10% FBS, 2 mM L-Glutamine, 100 units/mL Penicillin, 100 μg/mL Streptomycin. Various concentrations of each compound were incubated with the Pala cells for 2 hr at 37° C. Cells were collected, washed twice with PBS and lysed in Lysis Buffer (20 mM Citric Acid, 60 mM Disodium Hydrogen Orthophosphate, 1 mM EDTA, 0.1% CHAPS, pH 5.8). The protein concentrations were normalized by Bradford assay and lysates were assayed with 5 μ,M Cbz-Ala-Ala-Asn-AMC. […] Data were analyzed with GraFit version 5.0.11 software package.

Caspase-3 = assay: OGD in primary neurons, Caspase activity; assay type: cell-based; conditions: 0.1 μM or 1.0 μM compound
Experimental: A. AEP activity, measured in primary neuronal cultures with 5 μM Cbz-Ala-Ala-Asn-AMC (x-axis denotes neurons were treated with 0.1 μM or 1.0 μM specified compound). B. Caspase activity, measured in primary neuronal cultures with 5 μM Ac-Asp-Glu-Val-Asp-AMC. C. Cathepsin activity, measured in primary neuronal cultures with 5 μM D-Val-Leu-Lys-AMC. D. Inhibition of APP cleavage. Lysates of primary cortical neurons pre-incubated with compounds for 30 min, underwent OGD for 4 hrs, were reperfused for 18 hrs (normoxia neurons remained at normoxic conditions). E. APP can be cleaved in a dose-dependent manner. Lysates of primary cortical neurons pre-incubated with compounds for 30 min, underwent OGD for 4 hrs, were reperfused for 18 hrs (normoxia neurons remained at normoxic conditions).
Depriving cells of oxygen and glucose is a cellular model that is employed to trigger acidosis in cultured cells. The efficacy of the compounds in a cellular model of oxygen-glucose deprivation (OGD) was determined in an effort to mimic the effects of stroke in primary cultured neurons. As a result of depriving neurons of oxygen and glucose-containing medium, AEP activity was doubled (FIG. 7A, ‘DMSO-Norm’ compared to ‘DMSO-OGD’), while Caspase-3 and Cathepsin activities remained relatively unchanged. […]

5XFAD mice [2] = assay: Amyloid plaque staining and Aβ ELISA in 5XFAD mice; assay type: in vivo, mouse; conditions: oral once daily for 3 months
Experimental: (§1) A. Thioflavin-S staining of amyloid plaques in the hippocampus (HP), motor cortex (MC), and frontal cortex (FC) of 5XFAD mouse brain sections. Scale bar, 50 μm. B. Quantitative analysis of amyloid plaques. […] F. The percentage of time spent in the target quadrant in the probe trail.
Free-floating 30-μm-thick serial sections were treated with 0.3% hydrogen peroxide for 10 min, and then incubated with anti-AEP-cleaved APP (1:500) or anti-Aβ (1:500) overnight. The signal was developed using Histostain-SP kit (#956543, invitrogen) according to the manufacturer's instructions.
After rinsed in distilled water, the sections were transferred to blocking solution containing 1% sodium hydroxide and 0.9% hydrogen peroxide for 20 min. The sections were incubated for 5 s in 0.25% acidic acid, then washed in distilled water and stained for 5 min with 0.0125% Thioflavin-S in 50% ethanol. The sections were washed with 50% ethanol and placed in distilled water. Then the sections were covered with glass cover using mounting solution.
The mice brains were homogenized in 8X mass of 5 M guanidine HCl/50 mM Tris HCl (pH 8.0), and incubated at room temperature for 3 h. Then the samples were diluted with cold reaction buffer (phosphate buffered saline with 5% BSA and 0.03% Tween 20, supplemented with protease inhibitor cocktail), and centrifuged at 16 000 g for 20 min at 4° C. The supernatant were analysed by human Aβ42 ELISA kit according to the manufacturer's instructions (KHB3441, Invitrogen). The Aβ42 concentrations were determined by comparison with the standard curve.

5XFAD mice [3] = assay: Morris water maze in 5XFAD mice; assay type: in vivo, mouse
Source text: as §1
Female wild-type and 5XFAD mice maintained on standard drinking water or compound #11 were trained in a round, water-filled tub (52 inch diameter) in an environment rich with extra maze cues. An invisible escape platform was located in a fixed spatial location 1 cm below the water surface independent of a subjects start position on a particular trial. In this manner, subjects needed to utilize extra maze cues to determine the platform's location. At the beginning of each trial, the mouse was placed in the water maze with their paws touching the wall from 1 of 4 different starting positions (N, S, E, W). Each subject was given 4 trials/day for 5 consecutive days with a 15-min inter-trial interval. […] Upon reaching the invisible escape platform, subjects were left on it for an additional 5 s to allow for survey of the spatial cues in the environment to guide future navigation to the platform. After each trial, subjects were dried and kept in a dry plastic holding cage filled with paper towels to allow the subjects to dry off The temperature of the water was monitored every hour so that mice were tested in water that was between 22 and 25° C. Following the 5 days of task acquisition, a probe trial was presented during which time the platform was removed and the percentage of time spent in the quadrant which previously contained the escape platform during task acquisition was measured over 60 s. All trials were analysed for latency, swim path length, and swim speed by means of MazeScan (Clever Sys, Inc.).

T1 sequence (Q99538 18-323): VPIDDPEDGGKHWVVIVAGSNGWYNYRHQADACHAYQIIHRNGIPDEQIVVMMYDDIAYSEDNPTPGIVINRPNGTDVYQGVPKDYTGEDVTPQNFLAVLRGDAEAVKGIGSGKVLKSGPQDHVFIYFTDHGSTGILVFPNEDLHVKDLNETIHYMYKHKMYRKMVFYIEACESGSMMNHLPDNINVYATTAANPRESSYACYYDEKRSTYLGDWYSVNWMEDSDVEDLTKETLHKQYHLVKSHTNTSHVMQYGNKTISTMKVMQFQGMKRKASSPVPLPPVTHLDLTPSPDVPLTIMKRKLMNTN

Structure (SMILES)	IC50 in intact Pala cells [1]	Caspase-3 activity in OGD-treated neurons (Caspase-3)	amyloid plaque deposition (Thioflavin S) (5XFAD mice [2]; hippocampus, motor cortex, frontal cortex)	concentration of Aβ 1-40 in brain lysates (5XFAD mice [2])	concentration of Aβ 1-42 in brain lysates (5XFAD mice [2])	Morris water maze, distance to platform (5XFAD mice [3]; 5 acquisition days, vs vehicle)	swim speed (5XFAD mice [3]; mouse, in vivo)	Morris water maze probe test, time in target quadrant (5XFAD mice [3]; vs vehicle)
Sc1nnc(Nc2ccccc2)s1 [Compound BB1]	slightly larger IC50 values	–	–	–	–	–	–	–
Nc1ccc(N2CCOCC2)c2nonc12 [Compound 11]	–	not observed	decreased; also recorded: attenuated	decreased	decreased	decreased distance to platform	not altered; also recorded: not affected	spend more time in the target quadrant; also recorded: spent more time in the target quadrant

From patent US20170029388A1, “Treatment of Neurodegenerative Diseases with Asparagine Endopeptidase (AEP) Inhibitors and Compositions Related Thereto” (INTERCONTINENTAL GREAT BRANDS LLC, priority 2014, published 2017)
